Assay results taken from US10952974B2, “Delivery of bioactive, nanoencapsulated antioxidants” (Board of Supervisors of Louisiana State University and …, priority 2014, dated 2021).
In brackets after ≈: the same amount, converted by molar mass. Like-named read-outs stand apart in the source and are kept apart here.

Legend:
[1] = system: selenite-induced cataract; assay: Selenite-induced cataract in rat pups, first animal study; format: in vivo, Wistar albino rat
Method: Four pregnant Wistar female albino rats were obtained from the Laboratory Animal Facility of the Iuliu Hatieganu University of Medicine and Pharmacy in Cluj-Napoca, Romania. Each female rat and its litter of pups were housed in plastic cages, on a 12 h lighting cycle, at constant temperature (22° C.) with free access to rat chow and tap water. At 12 days of age, the rat pups were randomized into seven groups as follows:
Group 1 (selenite group, positive control): no exposure to lutein
Group 2 (PLGA-NP-1) daily received orally, by gavage, 2.5 mg/kg PLGA-NP-lutein dispersed in a 0.5 mL emulsion of 30% olive oil+70% flour slurry, corresponding to a daily dose of 2.66 mg lutein/kg body mass. (The flour slurry, in turn, had been prepared by mixing 0.3 g flour in 1 ml water.)
Group 3 (PLGA-NP-2) daily received orally, by gavage, 5 mg/kg PLGA-NP-lutein dispersed in 0.5 mL emulsion of 30% olive oil+70% flour slurry, corresponding to a daily dose of 5.32 mg lutein/kg body mass. (Flour slurry: identical to that used for Group 2
Group 4 (lutein) daily received orally, by gavage, 0.00525 mg unmodified lutein dispersed in 0.5 mL emulsion of 30% olive oil+70% flour slurry, corresponding to a daily dose of 0.125 mg lutein/kg body mass. (Flour slurry: identical to that used for Group 2.)
Group 5 (HG-PLGA-NP-1) was treated locally, once a day, with corneal application (1 drop in each eye) of 1 wt % PLGA-NP-lutein in the bioadhesive hydrogel of Example 19. (30 mg of lyophilized lutein-loaded PLGA NPs were dissolved in 3 ml of bioadhesive hydrogel. The volume of one drop of hydrogel was approx. 0.012 mL, with a density of 0.9444 g/mL.)
Group 6 (HG-PLGA-NP-2) was treated locally, once a day, by corneal application (1 drop/in each eye) with 3% PLGA-NP-lutein in a bioadhesive hydrogel. (90 mg of lyophilized lutein-loaded PLGA NPs were dissolved in 3 ml of bioadhesive hydrogel. The volume of one drop of hydrogel was approx. 0.012 mL, with a density of 0.9444 g/mL.)
Group 7 (negative control)—no exposure to selenite, and no lutein treatment.
On day 13 post-partum, cataracts were induced in all animals in Groups 1-6 with a single, intraperitoneal injection of sodium selenite (Na2SeO3), 30 μmol/kg. Subsequently, the animals from groups 2-6 were treated daily, in accordance with the protocols described above. The lutein content of the PLGA-NPs (42.61 μg lutein/mg PLGA-NP) was assessed by UV-VIS spectrophotometry (450 nm) with an external standard calibration. On day 21 post-partum, cataract development was evaluated by slit-lamp examination. Eyes were scored into one of five stages: stage 0 (no cataract), stage 1 (slight nucleus opacity), stage 2 (mild nucleus opacity, a central while opacity occupying less than half the diameter of the nucleus), stage 3 (dense opacity, a central while opacity occupying more than half the diameter of the nucleus) and stage 4 (dense, white opacity over the whole nucleus). Statistics were performed in SPSS 14.0 for Windows and Excel. The variables were checked for normal distribution with the Shapiro-Wilk test. Groups were compared with the Wilcoxon test. Statistical significance was set at p<0.05.

[2] = Solubility of lutein in water and organic solvents; format: physicochemical; settings: chloroform vs ethanol
[3] = cited from earlier work
[4] = cited from earlier work; remark: listed apart in the source
[5] = oral gavage daily, 0.125 mg lutein/kg, day 21 postpartum

CC1=C[C@H](O)CC(C)(C)[C@H]1/C=C/C(C)=C/C=C/C(C)=C/C=C/C=C(C)/C=C/C=C(C)/C=C/C1=C(C)C[C@@H](O)CC1(C)C [Lutein, β,ε-carotene-3,3′-diol]
Cataract stage Mean ± SD [1, 5]: 3.2 ± 0.8 | Stage 0 [1, 5]: 0 no. animals | Stage 1 [1, 5]: 0 no. animals | Stage 2 [1, 5]: 1 no. animals | Stage 3 [1, 5]: 2 no. animals | Stage 4 [1, 5]: 2 no. animals | reduction in cataract development vs selenite group ([1]; treated orally): small (and statistically insignificant) reduction in cataract development | solubility in chloroform relative to solubility in ethanol [2]: 20 times | Stability ([3]; stored at −20° C. under a nitrogen atmosphere): Stable if stored at −20 °C under a nitrogen | Stability ([3]; to light and oxygen): Unstable to light and oxygen; | Solubility ([4]; in 2-Propanol): 400 µg/mL (≈ 703 µM) | Solubility ([4]; in Acetone): 800 µg/mL (≈ 1410 µM) | Solubility ([4]; in Acetonitrile): 100 µg/mL (≈ 176 µM) | Solubility ([4]; in Benzene): 600 µg/mL (≈ 1050 µM) | Solubility ([4]; in Chloroform): 6000 µg/mL (≈ 10500 µM) | Solubility ([4]; in Cyclohexane): 50 µg/mL (≈ 87.9 µM) | Solubility ([4]; in Cyclohexanone): 4000 µg/mL (≈ 7030 µM) | Solubility ([4]; in Dimethyl formamide): 1000 µg/mL (≈ 1760 µM) | Solubility ([4]; in Ethyl acetate): 800 µg/mL (≈ 1410 µM) | Solubility ([4]; in Ethyl alcohol): 300 µg/mL (≈ 527 µM) | Solubility ([4]; in Ethyl ether): 2000 µg/mL (≈ 3520 µM) | Solubility ([4]; in Hexane): 20 µg/mL (≈ 35.2 µM) | Solubility ([4]; in Methyl alcohol): 200 µg/mL (≈ 352 µM) | Solubility ([4]; in Methyl tert butyl ether): 2000 µg/mL (≈ 3520 µM) | Solubility ([4]; in Tetrahydrofuran): 8000 µg/mL (≈ 14100 µM) | Solubility ([4]; in Toluene): 500 µg/mL (≈ 879 µM) | Solubility in water [4]: Insoluble | Solubility in water ([4]; listed as lutein): water-insoluble
